Measured values taken from the supplement of paper PMC10307832.

Assays:
[1] = compound: C1CCC(CC1)N(CCNCCC2=C3C(=C(C=C2)O)NC(=O)CO3)C(=O)CCNCCC4=CC(=C(C=C4)Cl)Cl [AZ505] + CC(=O)Nc1cccc(-n2c(=O)n(C3CC3)c(=O)c3c(Nc4ccc(I)cc4F)n(C)c(=O)c(C)c32)c1 [Trametinib] (partner 0.02 µM); assay: relative viability (nuclei count vs DMSO), 5 days (fraction); higher = more cells survive
Procedure, shortened: (§1)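 Five library-drug doses in √10 steps were combined with a fixed anchor-drug dose, or a single drug was given alone, by pin tool to lung cancer cell lines in 1536-well plates the day after seeding. Nuclei were stained and counted after 5 days. Relative viability is the nuclei count in treated wells over that in vehicle wells, taken as the median of duplicate plates.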

[2] = compound: C1CCC(CC1)N(CCNCCC2=C3C(=C(C=C2)O)NC(=O)CO3)C(=O)CCNCCC4=CC(=C(C=C4)Cl)Cl [AZ505] + NC(=O)Nc1cc(-c2cccc(F)c2)sc1C(=O)N[C@H]1CCCNC1 [AZD7762] (partner 0.2 µM); assay: as above
Procedure, shortened: as §1

Cell Line	relative viability ([1]; first compound 0.08 µM)	relative viability ([1]; first compound 0.253 µM)	relative viability ([1]; first compound 0.8 µM)	relative viability ([1]; first compound 2.53 µM)	relative viability ([1]; first compound 8 µM)	relative viability ([2]; first compound 0.08 µM)	relative viability ([2]; first compound 0.253 µM)	relative viability ([2]; first compound 0.8 µM)	relative viability ([2]; first compound 2.53 µM)	relative viability ([2]; first compound 8 µM)
NCI-H1993	0.463	0.533	0.45	0.575	0.469	0.629	0.722	0.609	0.854	0.943
NCI-H2009	0.247	0.262	0.233	0.276	0.287					
NCI-H2023	0.576	0.548	0.525	0.682	0.569					
NCI-H2085	0.49	0.477	0.52	0.571	0.591	0.879	0.966	0.847	0.968	0.954
NCI-H2087	0.171	0.257	0.221	0.281	0.219	1.22	1.24	1.35	1.15	1.24
NCI-H2126	0.523	0.592	0.523	0.629	0.574	0.939	1.02	1.02	0.985	1.08
NCI-H2170	0.84	0.931	0.883	0.893	0.942	0.825	0.901	0.821	0.92	0.966
NCI-H2228	0.311	0.374	0.441	0.49	0.429					
NCI-H2342	0.668	0.789	1.01	0.752	1.01	0.538	0.488	0.489	0.686	0.563
NCI-H2347	0.332	0.258	0.263	0.247	0.254	0.548	0.659	0.554	0.553	0.578
NCI-H2405	0.487		0.615	0.586	0.603	0.45		0.605	0.605	0.665
NCI-H3122	0.211	0.258	0.215	0.27	0.267	0.923	1.01	1	0.974	1.03
PC-3 [JPC-3]	0.596		0.694	0.704	0.693	0.784		0.843	0.873	1.06
PC-14	0.711	0.884	0.76	0.747	0.786	0.366	0.317	0.391	0.354	0.372
RERF-LC-KJ	0.863	0.958	0.797	0.878	0.71	0.95	0.964	0.923	0.98	0.909
SK-LU-1	0.366	0.377	0.401	0.383	0.407					
SK-MES-1	0.513	0.531	0.532	0.508	0.584					
SW 900	0.554	0.846	0.682	0.72	0.813	0.576	0.295	0.611	0.569	0.75
SW 1573	0.536	0.657	0.515	0.474	0.543					
